Results: patent US20260306485A1, “COMPOSITIONS AND METHODS FOR THE TREATMENT OF CONGENITAL ADRENAL HYPERPLASIA” (CRINETICS PHARMACEUTICALS, INC., priority 2023, published 2026)

Legend:
Assay type in all cases: in vivo, human
[1] = test system: serum 17-hydroxyprogesterone (17-OHP); test: Phase 2 CAH study, Cohort 1 initial analysis: morning serum 17-hydroxyprogesterone (17-OHP); details: 80 mg QD oral; for 17-OHP reduction (mean±SD): baseline 4740 to 6905 ng/dL
Text: The secondary efficacy objective is to evaluate the efficacy of CRN04894, measured by the change from baseline in serum 17-hydroxyprogesterone (17-OHP), with the secondary efficacy endpoint being the change from baseline in the morning (before 11:00 AM) serum 17-OHP at week 12.
(§1) Up to approximately 30 participants will be enrolled in the study. Each cohort will enroll at least 6 participants, with a possible expansion of up to an additional 6 participants in cohorts 1 and 2, to a maximum of 12 evaluable participants in those cohorts. The treatment duration will be up to Day 84 (12 Weeks) per participant. The total study duration will be up to 140 days (up to 4 weeks of screening, 12 weeks of treatment, and 4 weeks of follow-up) per participant. The visit frequency will be at Screening (2 visits), on Day 1 (Baseline), and at Weeks 2 (Day 14), 6 (Day 42), and 12 (Day 84). A Safety Follow-up Visit will occur 2 weeks following the last dose of CRN04894 (Week 14; Day 98), and a telephone call to collect any adverse events (AEs) will occur at 4 weeks after the last dose of CRN04894 (Week 16, Day 112). The study design is discussed in detail below.
(§2) Participants in all cohorts will continue their preexisting glucocorticoid replacement dosing regimens/doses throughout the study. In addition, starting the night of Day 1 and ending the night before the Week 12/end of treatment (EOT) visit, each cohort will administer CRN04894 between 22:00-24:00 (at approximately the same time each night) once daily (QD) before sleep.
(§3) Participants in Cohort 1 will receive 80 mg of CRN04894 QD. After at least 3 participants have completed 2 weeks of dosing with 80 mg of CRN04894 QD in Cohort 1, an interim analysis evaluating PD, PK, efficacy, and safety will be reviewed by the Safety Review Committee (SRC). If it is safe to continue, the SRC will recommend dosing of 120 mg of CRN04894 in Cohort 2. However, the SRC can recommend a lower dose (i.e., 40 mg of CRN04894 QD) in Cohort 2 based on review of safety data. The SRC also has the option to recommend increasing enrollment up to a total of 12 participants each in Cohorts 1 and/or 2. In this situation, expanded enrollment in the cohort will be completed, and data from the expanded cohort will be reviewed by the SRC prior to enrollment in the subsequent cohort.
(§4) A pharmacodynamic biomarker panel will be drawn. The biomarker panel will include the following: • 17-hydroxyprogesterone (17-OHP); • Adrenocorticotropic hormone (ACTH) (plasma); • Testosterone; • Androstenedione (A4); • Dehydroepiandrosterone (DHEA); • Dehydroepiandrosterone sulfate (DHEA-S); • 11-deoxycorticosterone (11-DOC); • 21-deoxycortisol; • 11β-hydroxyandrostenedione (11-OHA4); • 11-ketoandrostenedione (11-ketoA4); • 11β-hydroxytestosterone (11-OHT); • 11-ketotestosterone (11-ketoT); • Aldosterone; and • Renin.
(§5) Visits 2-7: Prior to receiving the morning GC replacement dose, a total of 2 blood draws (approximately 1 hour apart) for PD biomarkers will be drawn. The drawing of the PD biomarkers should be one of the first visit activities performed at the start of the visit. Visits should start as early in the morning as possible (preferably 07:00-08:00), so as to minimize any delay in administration of the morning GC dose and the timing of each study visit should be as consistent as possible. The second set of PD biomarkers should be drawn no later than 11:00 am.
(§6) The initial analysis summarizes the data of four participates (n=4) of Cohort 1 who received 80 mg of CRN04894 QD. There were three female/women participants (n=3) and one male/men participant (n=1).
(§7) Cohort 1 initial analysis of % changes in values from baseline of morning serum A4, morning serum 17-OHP, morning serum testosterone in females, morning serum testosterone in males, and morning serum A4/testosterone in males are presented in Table 4 below. These changes from baseline are also depicted in FIG. 1, FIG. 2, FIG. 4, FIG. 5, and FIG. 10, respectively. […]

[2] = test system: serum androstenedione (A4); test: Phase 2 CAH study, Cohort 1 initial analysis: morning serum androstenedione (A4); details: 80 mg QD oral; for A4 reduction (mean±SD): morning, baseline 116 to 604 ng/dL
Text: The primary efficacy objective is to evaluate the efficacy of CRN04894, measured by the change from baseline in serum androstenedione (A4), with the primary efficacy endpoint being the change from baseline in the morning (before 11:00 AM) serum A4 at week 12.
as §1, §2, §3, §4, §5, §6, §7

[3] = test system: serum A4/testosterone (male/men); test: Phase 2 CAH study, Cohort 1 initial analysis: morning serum A4/testosterone, male participants; details: 80 mg QD oral, n=1; for A4/T ratio in the patient: baseline 0.3, normal <0.2
Text: as §1, §2, §3, §4, §5, §6
(§8) Cohort 1 initial analysis of % changes in values from baseline of morning serum A4, morning serum 17-OHP, morning serum testosterone in females, morning serum testosterone in males, and morning serum A4/testosterone in males are presented in Table 4 below. These changes from baseline are also depicted in FIG. 1, FIG. 2, FIG. 4, FIG. 5, and FIG. 10, respectively.
(§9) Patients (aged ≥18 to 75, ≥16 years in USA) with classical CAH on a stable dose of glucocorticoid replacement for at least six months were enrolled and received 80 mg once daily, oral CRN04894 for 12 weeks followed by a four-week washout. […]

[4] = Phase 2 CAH study, Cohort 1 initial analysis: menstruation; details: 80 mg QD oral; three female participants in cohort
Text: as §1, §2
Participants in Cohort 1 will receive 80 mg of CRN04894 QD. […]

[5] = test system: serum testosterone (female/women); test: Phase 2 CAH study, Cohort 1 initial analysis: morning serum testosterone, female participants; details: 80 mg QD oral; for testosterone reduction (mean±SD), female participants: morning, baseline 114 ng/dL
Text: as §1, §2, §3, §4, §5, §6, §8, §9

[6] = test system: plasma adrenocorticotropic hormone (ACTH); test: Phase 2 CAH study, Cohort 1 initial analysis: morning plasma ACTH; details: 80 mg QD oral; for variation in ACTH levels during treatment: morning, baseline 155 to 1009 pg/mL
Text: as §1, §2, §3, §4
(§10) Visits 2-7: Prior to receiving the morning GC replacement dose, a total of 2 blood draws (approximately 1 hour apart) for PD biomarkers will be drawn. […]

[7] = test system: serum testosterone (male/men); test: Phase 2 CAH study, Cohort 1 initial analysis: morning serum testosterone, male participants; details: 80 mg QD oral, n=1
Text: as §1, §2, §3, §4, §10

With CCOc1ccccc1-c1ccc(N2CCN(C(=O)C3(C(F)(F)F)CCC3)C[C@H]2CC)c(C(=O)N[C@@H]2CN3CCC2CC3)n1 [CRN04894, N-[(3S)-1-Azabicyclo[2.2.2]octan-3-yl]-6-(2-ethoxyphenyl)-3-[(2R)-2-ethyl-4-[1-(trifluoromethyl)cyclobutanecarbonyl]-piperazin-1-yl]pyridine-2-carboxamide] the “% Change in morning 17-OHP” value ([1]; Mean, Week 2, n=4) was −96%, the “% Change in morning 17-OHP” value ([1]; Mean, Week 6, n=4) was −97% and the “% Change in morning 17-OHP” value ([1]; Mean, Week 12, n=2) was −83%. For the same compound, the “% Change in morning 17-OHP” value ([1]; Median, Week 2, n=4) was −96%, the “% Change in morning 17-OHP” value ([1]; Median, Week 6, n=4) was −97% and the “% Change in morning 17-OHP” value ([1]; Median, Week 12, n=2) was −83%. For the same compound, the “17-OHP reduction (mean±SD)” value ([1]; Week 2, n=4) was 96%±2%, the “17-OHP reduction (mean±SD)” value ([1]; Week 6, n=4) was 97%±0.3% and the “17-OHP reduction (mean±SD)” value ([1]; Week 12, n=2) was 83%±22%. For the same compound, the “17-OHP reduction, onset and maintenance” value ([1]; all participants) was “rapid and profound 17-OHP reduction within two weeks, which were maintained for the duration of therapy”, the “% Change in morning serum A4” value ([2]; Mean, Week 2, n=4) was −86% and the “% Change in morning serum A4” value ([2]; Mean, Week 6, n=4) was −90%. The “% Change in morning serum A4” value ([2]; Mean, Week 12, n=2) was −88%, the “% Change in morning serum A4” value ([2]; Median, Week 2, n=4) was −88% and the “% Change in morning serum A4” value ([2]; Median, Week 6, n=4) was −94%. For the same compound, the “% Change in morning serum A4” value ([2]; Median, Week 12, n=2) was −88%, the “A4 reduction (mean±SD)” value ([2]; Week 2, n=4) was 86%±10% and the “A4 reduction (mean±SD)” value ([2]; Week 6, n=4) was 90%±9%. For the same compound, the “A4 reduction (mean±SD)” value ([2]; Week 12, n=2) was 88%±15%, the “A4 reduction, onset and maintenance” value ([2]; all participants) was “rapid and profound A4 reduction within two weeks, which were maintained for the duration of therapy” and the “A4 levels relative to upper limit of normal” value ([2]; all visits following treatment, normal 30-200 ng/dL females, 40-150 ng/dL males) was “all A4 levels ending below the upper limit of normal (<ULN) at all visits following treatment”. For the same compound, the “% Change in morning A4/testosterone (male/men)” value ([3]; Mean, Week 2) was −73%, the “% Change in morning A4/testosterone (male/men)” value ([3]; Mean, Week 6) was −79% and the “% Change in morning A4/testosterone (male/men)” value ([3]; Median, Week 2) was −73%. The “% Change in morning A4/testosterone (male/men)” value ([3]; Median, Week 6) was −79%, the “A4/T ratio in the patient” value ([3]; week 2) was 0.08 and the “A4/T ratio in the patient” value ([3]; week 6) was 0.06. The “menstruation in female participants” value [4] was “Two female participants in this cohort menstruated for the first time in over 2 years”, the “% Change in morning testosterone (female/women)” value (“% Change … (female/women)” below) ([5]; Mean, Week 2, n=3) was −61% and the “% Change … (female/women)” value ([5]; Mean, Week 6, n=3) was −65%. For the same compound, the “% Change … (female/women)” value ([5]; Mean, Week 12, n=2) was −97%, the “% Change … (female/women)” value ([5]; Median, Week 2, n=3) was −86% and the “% Change … (female/women)” value ([5]; Median, Week 6, n=3) was −96%. The “% Change … (female/women)” value ([5]; Median, Week 12, n=2) was −97%, the “testosterone reduction (mean±SD), female participants” value (“testosterone reduction (mean±SD)” below) ([5]; Week 2, n=3) was 61%±53% and the “testosterone reduction (mean±SD)” value ([5]; Week 6, n=3) was 65%±56%. The “testosterone reduction (mean±SD)” value ([5]; Week 12, n=2) was 97%±1%, the “ACTH levels, trend during treatment” value ([6]; in words) was “Modest variations in ACTH levels without a consistent directional trend” and the “variation in ACTH levels during treatment” value (from here on “variation”) ([6]; Week 2, n=4) was −25%±57%. For the same compound, the “variation” value ([6]; Week 6, n=4) was 51%±87%, the “variation” value ([6]; Week 12, n=2) was −13%±67% and the “% Change in morning testosterone (male/men)” value ([7]; Mean, Week 2) was 9%. For the same compound, the “% Change in morning testosterone (male/men)” value ([7]; Mean, Week 6) was 11%, the “% Change in morning testosterone (male/men)” value ([7]; Median, Week 2) was 9% and the “% Change in morning testosterone (male/men)” value ([7]; Median, Week 6) was 11%.
